The source made the active and inactive calls. For most assays here, no stated cut-off is given here; in the data, actives have a measured EC50 and inactives only a lower limit.
What was measured:
cells = type: functional
[1] = Trypanosoma cruzi growth suppression in host cells – NIH3T3 host cells, beta-gal luminescence, confirmation (AID 2044); type: functional, cell-based;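 further: intracellular parasites grown in NIH/3T3 mouse fibroblasts as host cells; luminescent beta-galactosidase reporter signal from transgenic T. cruzi replicating inside host cells; inhibitors lower the luminescence signal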
[2] = molecular target: T1, Heat shock factor protein 1 (Mus musculus, UniProt P38532); assay: enhancement of HSF1-driven luciferase signal – cell-based, NIH3T3, luminescence, dose retest, confirmation (AID 435004); type: functional;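 further: stress induced by proteasome inhibitor MG132 added 30 min after compound; luciferase reporter driven by HSF1 response element in NIH3T3 cells; actives raise luminescence as potentiators of the MG132 stress response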
T1 sequence (P38532 whole entry): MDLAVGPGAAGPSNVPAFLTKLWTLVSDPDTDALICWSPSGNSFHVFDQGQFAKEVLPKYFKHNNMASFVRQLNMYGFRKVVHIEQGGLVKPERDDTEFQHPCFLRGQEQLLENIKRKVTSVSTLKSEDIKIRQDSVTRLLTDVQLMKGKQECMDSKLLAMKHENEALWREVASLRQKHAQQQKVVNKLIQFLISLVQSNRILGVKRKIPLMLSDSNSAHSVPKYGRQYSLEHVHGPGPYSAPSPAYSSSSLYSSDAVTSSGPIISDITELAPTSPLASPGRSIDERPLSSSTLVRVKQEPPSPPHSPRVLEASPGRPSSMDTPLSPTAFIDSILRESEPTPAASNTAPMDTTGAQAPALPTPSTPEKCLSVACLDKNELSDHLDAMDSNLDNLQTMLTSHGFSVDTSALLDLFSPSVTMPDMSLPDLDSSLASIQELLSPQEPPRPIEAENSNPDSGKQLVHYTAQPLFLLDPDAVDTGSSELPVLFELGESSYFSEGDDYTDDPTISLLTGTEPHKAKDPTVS

[3] = NIH3T3 cell viability loss – ATP luminescence, mouse fibroblasts, counter-screen, dose response (AID 2010); type: functional, cell-based;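 further: cells exposed to compound for about 90 hours before reading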
[4] = molecular target: T2, Corticotropin-releasing factor receptor 2/Corticotropin-releasing factor-binding protein (Homo sapiens, UniProt P24387+Q13324); assay: activators of CRF receptor 2 with binding protein – uHTS hits, confirmation (AID 602473); type: functional; details: read-out: EC50_Mean
T2 sequence (Q13324 whole entry): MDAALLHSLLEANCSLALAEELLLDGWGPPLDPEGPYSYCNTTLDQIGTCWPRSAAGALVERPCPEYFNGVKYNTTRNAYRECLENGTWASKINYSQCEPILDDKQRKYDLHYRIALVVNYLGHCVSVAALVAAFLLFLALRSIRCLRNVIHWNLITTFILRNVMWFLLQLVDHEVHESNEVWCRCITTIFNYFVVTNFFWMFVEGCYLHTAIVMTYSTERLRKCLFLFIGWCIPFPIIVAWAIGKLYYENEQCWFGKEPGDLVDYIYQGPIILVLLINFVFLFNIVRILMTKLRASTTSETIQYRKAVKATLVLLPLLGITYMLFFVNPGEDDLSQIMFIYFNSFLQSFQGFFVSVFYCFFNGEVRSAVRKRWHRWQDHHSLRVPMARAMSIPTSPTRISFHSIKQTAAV
T2 sequence (P24387 whole entry): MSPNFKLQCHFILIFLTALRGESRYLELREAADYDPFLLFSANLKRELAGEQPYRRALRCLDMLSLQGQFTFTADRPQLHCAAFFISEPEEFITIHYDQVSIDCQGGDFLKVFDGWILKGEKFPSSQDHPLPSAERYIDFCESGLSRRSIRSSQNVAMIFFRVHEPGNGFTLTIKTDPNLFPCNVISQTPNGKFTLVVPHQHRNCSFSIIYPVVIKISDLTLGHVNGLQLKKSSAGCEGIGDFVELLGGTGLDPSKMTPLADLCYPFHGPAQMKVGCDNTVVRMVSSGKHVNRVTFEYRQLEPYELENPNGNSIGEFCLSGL

[5] = molecular target: T2, Corticotropin-releasing factor receptor 2/Corticotropin-releasing factor-binding protein; assay: Dose Response confirmation of uHTS hits for small molecule antagonists of the CRF-binding protein and CRF-R2 receptor complex.; type: functional; details: read-out: IC50_Mean
Protein RecA = molecular target: T3, Protein RecA (Mycobacterium tuberculosis, UniProt P9WHJ3); assay: Fluorescence Cell-Free Homogeneous Dose Retest to Identify Inhibitors of RecA-Intein Splicing Activity. [Related pubchem assays (depositor defined):AID2097, AID2223, AID489010, AID492950]; type: functional
T3 sequence (P9WHJ3 whole entry): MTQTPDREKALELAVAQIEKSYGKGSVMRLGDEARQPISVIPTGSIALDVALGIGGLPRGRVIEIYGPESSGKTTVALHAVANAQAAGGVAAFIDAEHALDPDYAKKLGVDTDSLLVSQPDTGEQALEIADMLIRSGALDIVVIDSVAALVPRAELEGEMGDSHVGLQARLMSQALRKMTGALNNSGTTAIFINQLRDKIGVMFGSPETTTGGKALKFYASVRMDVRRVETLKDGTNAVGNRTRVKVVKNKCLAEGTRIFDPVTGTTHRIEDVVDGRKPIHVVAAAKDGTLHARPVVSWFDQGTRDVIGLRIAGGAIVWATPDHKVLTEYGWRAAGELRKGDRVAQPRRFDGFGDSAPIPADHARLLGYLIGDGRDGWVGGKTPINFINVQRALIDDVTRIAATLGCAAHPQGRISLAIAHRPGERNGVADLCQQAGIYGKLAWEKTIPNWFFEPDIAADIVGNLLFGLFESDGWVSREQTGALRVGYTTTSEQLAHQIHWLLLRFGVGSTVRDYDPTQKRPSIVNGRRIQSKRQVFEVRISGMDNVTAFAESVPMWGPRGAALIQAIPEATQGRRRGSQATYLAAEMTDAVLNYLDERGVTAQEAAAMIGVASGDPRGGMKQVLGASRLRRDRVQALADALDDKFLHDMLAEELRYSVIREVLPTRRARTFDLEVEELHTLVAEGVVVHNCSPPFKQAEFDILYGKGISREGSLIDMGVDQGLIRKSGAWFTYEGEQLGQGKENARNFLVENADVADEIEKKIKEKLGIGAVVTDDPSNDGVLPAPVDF

[6] = molecular target: T4, Rac GTPase-activating protein 1 (Homo sapiens, UniProt Q9H0H5); assay: blockers of MgcRacGAP-driven Rac1 GTP hydrolysis – biochemical, ADP Hunter fluorescence, primary and confirmatory, confirmation (AID 624330); type: functional
T4 sequence (Q9H0H5 whole entry): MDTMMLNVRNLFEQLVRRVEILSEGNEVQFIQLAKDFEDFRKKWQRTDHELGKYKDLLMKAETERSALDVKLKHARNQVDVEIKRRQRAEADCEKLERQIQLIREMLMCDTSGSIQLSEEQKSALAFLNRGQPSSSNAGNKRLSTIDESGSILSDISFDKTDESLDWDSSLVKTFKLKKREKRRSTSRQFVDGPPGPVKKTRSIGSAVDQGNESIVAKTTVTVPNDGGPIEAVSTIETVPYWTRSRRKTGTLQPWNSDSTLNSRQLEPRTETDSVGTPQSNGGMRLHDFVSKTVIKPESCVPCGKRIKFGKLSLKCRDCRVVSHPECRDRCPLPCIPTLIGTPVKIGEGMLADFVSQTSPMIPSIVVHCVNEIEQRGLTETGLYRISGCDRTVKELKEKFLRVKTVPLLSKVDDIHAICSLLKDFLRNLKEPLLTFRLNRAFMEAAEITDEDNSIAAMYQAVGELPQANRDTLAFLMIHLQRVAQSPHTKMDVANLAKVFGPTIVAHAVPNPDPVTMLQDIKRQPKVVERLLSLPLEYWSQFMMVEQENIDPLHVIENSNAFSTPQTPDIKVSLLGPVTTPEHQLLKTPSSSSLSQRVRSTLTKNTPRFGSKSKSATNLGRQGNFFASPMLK

H4 = assay: Luminescence Cell-Based Dose Response HTS to Identify Activators of 5'UTR Stem-Loop Driven Prion Protein mRNA Translation in H4 Neuroglioblastoma Cells. [Related pubchem assays: 1829 (Project Summary), 1814 (Primary HTS)]; type: functional; details: Homo sapiens
[7] = Luminescence Cell-Based Dose Response HTS to Identify Activators of Luciferase Translation or Activity in H4 […] Cells. [Related pubchem assays: 1829 (Project Summary), 1814 (Primary HTS)]; type: functional
[8] = molecular target: T5, Replicative DNA helicase DnaB (Mycobacterium tuberculosis, UniProt P9WMR3); assay: DnaB intein splicing inhibitors, dose response, biochemical, cell-free fluorescence (AID 449749); type: functional
T5 sequence (P9WMR3 whole entry): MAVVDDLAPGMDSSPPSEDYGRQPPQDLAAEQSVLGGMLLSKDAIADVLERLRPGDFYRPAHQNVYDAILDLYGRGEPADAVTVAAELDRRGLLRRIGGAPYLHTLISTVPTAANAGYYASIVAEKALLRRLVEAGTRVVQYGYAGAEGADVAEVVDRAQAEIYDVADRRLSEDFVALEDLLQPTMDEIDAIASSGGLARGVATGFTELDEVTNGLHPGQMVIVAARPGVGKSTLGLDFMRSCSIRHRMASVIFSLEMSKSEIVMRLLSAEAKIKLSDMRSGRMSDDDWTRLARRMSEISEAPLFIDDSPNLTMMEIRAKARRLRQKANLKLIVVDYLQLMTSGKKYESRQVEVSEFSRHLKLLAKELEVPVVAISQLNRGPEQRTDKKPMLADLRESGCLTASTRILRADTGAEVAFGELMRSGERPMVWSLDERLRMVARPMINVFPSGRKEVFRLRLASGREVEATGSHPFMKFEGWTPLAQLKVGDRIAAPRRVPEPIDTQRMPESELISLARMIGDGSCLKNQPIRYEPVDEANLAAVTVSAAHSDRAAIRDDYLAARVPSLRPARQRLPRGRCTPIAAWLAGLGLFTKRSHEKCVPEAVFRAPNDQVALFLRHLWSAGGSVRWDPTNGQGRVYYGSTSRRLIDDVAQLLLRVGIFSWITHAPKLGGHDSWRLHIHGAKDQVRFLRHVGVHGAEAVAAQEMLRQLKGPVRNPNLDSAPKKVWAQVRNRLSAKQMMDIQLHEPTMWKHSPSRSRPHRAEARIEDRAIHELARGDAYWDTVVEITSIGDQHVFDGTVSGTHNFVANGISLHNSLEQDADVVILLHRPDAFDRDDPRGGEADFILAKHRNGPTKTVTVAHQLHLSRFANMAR

Streptococcus = assay: GAS UMAA2166 growth inhibition – luminescence, BacTiterGlo, counter-screen for streptokinase expression inhibitor project, dose response (AID 1915); type: functional, organism-based;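 further: potency for reduction of bacterial viability or growth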
Streptokinase A = molecular target: T6, Streptokinase A (Streptococcus pyogenes serotype M1, UniProt P10520); assay: viability-normalized secreted streptokinase activity reduction – plasminogen activation absorbance, OD405, dose response (AID 1914); type: functional, Streptococcus pyogenes M1 GAS;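 further: secreted streptokinase activity via plasminogen activation per viability signal from cell pellet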
T6 sequence (P10520 whole entry): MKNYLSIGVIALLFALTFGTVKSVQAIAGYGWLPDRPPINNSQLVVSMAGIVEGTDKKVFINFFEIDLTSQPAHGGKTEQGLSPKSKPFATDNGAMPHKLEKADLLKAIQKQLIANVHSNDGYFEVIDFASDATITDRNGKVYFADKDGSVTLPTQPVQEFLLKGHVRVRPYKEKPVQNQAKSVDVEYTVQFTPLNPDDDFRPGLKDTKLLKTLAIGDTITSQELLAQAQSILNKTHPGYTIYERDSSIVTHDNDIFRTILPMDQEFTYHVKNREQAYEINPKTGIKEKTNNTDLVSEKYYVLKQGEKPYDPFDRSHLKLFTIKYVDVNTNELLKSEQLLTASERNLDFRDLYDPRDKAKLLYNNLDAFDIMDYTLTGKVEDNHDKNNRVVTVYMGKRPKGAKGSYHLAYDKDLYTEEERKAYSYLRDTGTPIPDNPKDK

[9] = system: Streptococcus sp. 'group A'; assay: Streptococcus pyogenes SK(-)GAS viability under kanamycin – luminescence, BacTiterGlo, confirmation, counter-screen for streptokinase expression inhibitor project, dose response (AID 1900); type: functional, organism-based
[10] = Luminescence Cell-Based Dose Retest to Confirm Inhibitors of Cancer Stem Cells. [Related pubchem assays (depositor defined):AID2717, AID2721]; type: functional; details: Homo sapiens

## Cn1nnc(NC(=O)COc2ccc(C3CCCCC3)cc2)n1
cells
  IC50: 23.3 µM (active)

## CC(C)N(Cc1nc(-c2ccc(Cl)cc2)no1)C(=O)CN(C)S(=O)(=O)c1ccc(Cl)cc1
[1]
  EC50: 2.71 µM (active)
[2]
  EC50: > 260 µM (inactive)
[3]
  EC50: > 60 µM (not active)

## C=CCn1c(SCC(=O)NC2CCCC2)nc2scc(-c3ccco3)c2c1=O
[2]
  EC50: > 260 µM (inactive)

## CO/C(O)=C1\C(C)=NC(=S)NC1c1ccc(-c2cccc(Cl)c2)o1 (centres undefined)
[2]
  EC50: > 260 µM (inactive)

## Nc1c(C(=O)N2CCOCC2)sc2nc3c(cc12)CCC3
[4]
  EC50: > 53 µM (inactive)
[5]
  IC50: > 47.1 µM (inactive)

## COc1cc(/C=C2\C(=O)N(CCC#N)N=C2C)ccc1OCC(=O)Nc1ccccc1
Protein RecA
  EC50: 2.79 µM (active)
[6]
  IC50: 144 µM (active)
H4
  EC50: 64.8 µM (active)
[7]
  EC50: < 100 nM (active)
[8]
  AC50: 3.74 µM (active)

## Cc1nn2c3ccccc3nc2n(C)c1=O
[4]
  EC50: > 53 µM (inactive)
[5]
  IC50: > 47.1 µM (inactive)

## Cc1cc(N(C)C)c(C#N)c(NCc2ccccc2)n1
[2]
  EC50: > 260 µM (inactive)

## O=C(Nc1ccc(Cl)c(Cl)c1)O/N=C/c1ccncc1
cells
  IC50: 9.54 µM (active)
Streptococcus
  EC50: 36.5 µM (active)
Streptokinase A
  EC50: > 150 µM (not active)
[9]
  EC50: 1.75 µM (active)
[10]
  AC50: 5.98 µM (active)

## Cc1ccc(S(=O)(=O)N(CC(=O)N=Nc2c(O)[nH]c3ccccc23)c2ccc(C)c(C)c2)cc1
[4]
  EC50: > 53 µM (inactive)
[5]
  IC50: 3.25 µM (active)

## O=C(CCSc1ccccn1)c1ccccc1
cells
  IC50: 23.2 µM (active)

## Cc1cc(Cl)ccc1C(=O)C1CCCN(C(=O)c2cnsn2)C1 (centres undefined)
[2]
  EC50: > 260 µM (inactive)

## O=c1c(-c2ccc3c(c2)OCCO3)coc2cc(O)cc(O)c12
[2]
  EC50: 19.2 µM (active)

## COc1ccc(CN2CC(=O)N(c3cccc(Cl)c3)C2=S)cc1OC
[4]
  EC50: > 53 µM (inactive)
[5]
  IC50: > 47.1 µM (inactive)

## CCOC(=O)Cn1c(C)c(Br)c(=O)c2cccc(C)c21
cells
  IC50: 11.2 µM (active)

## Cc1nc2ccc(Br)cc2c(=O)n1Cc1cccs1
[2]
  EC50: > 260 µM (inactive)

## Cc1cccc(N=C(S)N(CCN(C)C)C(C)c2cccnc2)c1 (centres undefined)
[2]
  EC50: > 260 µM (inactive)

## Cc1nc2scc(-c3ccc(Cl)cc3)c2c(=O)n1N
[2]
  EC50: > 260 µM (inactive)

## COc1ccc(/C=C/C(=O)NCCCc2ccccc2)cc1
[2]
  EC50: > 260 µM (inactive)

## O=c1[nH]c2ccccc2n1CCC1CCCCC1
[2]
  EC50: > 260 µM (inactive)

Source: ChEMBL document CHEMBL1201862, “PubChem BioAssay data set” (2004)
